Earlier results in patent publication US8703900B2 (BioAmber Inc., priority 2010, dated 2014).

Details: first acid group

pKa1: 4.43
Structure (SMILES): O=C(O)CCCCC(=O)O [AA, adipic acid]
